Experimental data as given in US20240158446A1, “CYCLIC COMPOUND HAVING SELECTIVE INHIBITORY ACTION ON KRAS OVER HRAS AND NRAS” (CHUGAI SEIYAKU KABUSHIKI KAISHA, priority 2021, published 2024).
Read-outs that look alike come from different tables or passages of the source.

Key:
[1] = system: human lung cancer strain NCI-H441;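 note: cell proliferation inhibition after four days measured by CellTiter-Glo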
[2] = target: GDP-bound HRAS wild-type protein (Homo sapiens, UniProt P01112); experiment: Binding to HRAS by surface plasmon resonance (SPR), Single Cycle Kinetics; conditions: for HRAS/KRAS (ratio of KD value with respect to GDP-bound HRAS wild-type protein to KD value with respect to KRAS): SPR KD ratio HRAS/KRAS, class symbols; for HRAS/KRAS (ratio of KD value for HRAS to KD value for KRAS): GDP-bound HRAS wild-type protein vs GDP-bound KRAS wild-type protein
[3] = target: GDP-bound KRAS wild-type protein (Homo sapiens, UniProt P01116); experiment: Binding to KRAS by surface plasmon resonance (SPR), Single Cycle Kinetics
[4] = target: GDP-bound NRAS wild-type protein (Homo sapiens, UniProt P01111); experiment: Binding to NRAS by surface plasmon resonance (SPR), Single Cycle Kinetics; conditions: for NRAS/KRAS (ratio of KD value with respect to GDP-bound NRAS wild-type protein to KD value with respect to KRAS): SPR KD ratio NRAS/KRAS, class symbols; for NRAS/KRAS (ratio of KD value for NRAS to KD value for KRAS): GDP-bound NRAS wild-type protein vs GDP-bound KRAS wild-type protein
[5] = SPR Single Cycle Kinetics, GDP-bound KRAS wild-type protein, 1:1 binding model, read-out: KRAS KD
[6] = SPR, Single Cycle Kinetics, 1:1 binding model, GDP-bound KRAS wild-type protein, read-out: KRAS KD
[7] = SPR, Single Cycle Kinetics, GDP-bound KRAS wild-type protein, read-out: KRAS KD

Sequence of GDP-bound HRAS wild-type protein (P01112 whole entry): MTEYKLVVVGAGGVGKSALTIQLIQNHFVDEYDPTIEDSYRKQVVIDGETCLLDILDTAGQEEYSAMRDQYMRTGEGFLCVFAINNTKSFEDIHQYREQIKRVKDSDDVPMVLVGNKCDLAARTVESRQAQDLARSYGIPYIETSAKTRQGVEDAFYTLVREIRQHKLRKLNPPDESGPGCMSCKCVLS
Sequence of GDP-bound NRAS wild-type protein (P01111 whole entry): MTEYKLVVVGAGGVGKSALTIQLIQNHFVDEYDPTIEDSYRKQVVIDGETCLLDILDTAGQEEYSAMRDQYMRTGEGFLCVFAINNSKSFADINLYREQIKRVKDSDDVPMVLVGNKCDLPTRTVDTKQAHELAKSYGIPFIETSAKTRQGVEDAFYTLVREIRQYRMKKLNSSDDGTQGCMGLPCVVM
Sequence of GDP-bound KRAS wild-type protein (P01116 whole entry): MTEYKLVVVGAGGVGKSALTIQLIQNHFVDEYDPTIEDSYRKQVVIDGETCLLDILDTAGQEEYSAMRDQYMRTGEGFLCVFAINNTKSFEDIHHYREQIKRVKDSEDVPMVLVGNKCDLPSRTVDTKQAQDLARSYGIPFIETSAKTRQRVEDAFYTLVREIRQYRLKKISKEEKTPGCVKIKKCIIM

| Compound | IC50 [1] | Kd [3, 6] | Kd [3, 7] | HRAS/KRAS (ratio of KD value for HRAS to KD value for KRAS) ([2]; SPR, KD ratio class) | NRAS/KRAS (ratio of KD value for NRAS to KD value for KRAS) ([4]; SPR, KD ratio class) | HRAS/KRAS (ratio of KD value for HRAS to KD value for KRAS) ([2]; SPR) | NRAS/KRAS (ratio of KD value for NRAS to KD value for KRAS) ([4]; SPR) | other results |
| --- | --- | --- | --- | --- | --- | --- | --- | --- |
| CCC[C@H]1C(=O)N[C@@H](CC(C)C)C(=O)N(CCOC)CC(=O)N(C)[C@H]2C/C=C\CCN(C2=O)[C@@H](Cc2ccc(C)cc2)C(=O)N(C)CC(=O)N[C@@H](CCc2ccc(C(F)(F)F)c(OC)c2)C(=O)N2C[C@H](OCC)C[C@H]2C(=O)NC2(CCC2)C(=O)N(C)[C@@H](C2CCCC2)C(=O)N(C)[C@H](C(=O)N(C)C)CC(=O)N1C [PP2542] | 394 nM | – | – | – | – | – | – | HRAS/KRAS (ratio of KD value with respect to GDP-bound HRAS wild-type protein to KD value with respect to KRAS) [2]: B (a compound having 3 or more and less than 10 is denoted as B); Kd [3, 5]: 4.6 nM; NRAS/KRAS (ratio of KD value with respect to GDP-bound NRAS wild-type protein to KD value with respect to KRAS) [4]: B (a compound having 3 or more and less than 10 is denoted as B) |
| CCO[C@@H]1C[C@H]2C(=O)NC3(CCC3)C(=O)N(C)[C@@H](C3CCCC3)C(=O)N(CC)[C@H](C(=O)N3CCOCC3)CC(=O)N(C)[C@@H](CCC(F)F)C(=O)N[C@@H]([C@@H](C)CC)C(=O)N(C)CC(=O)N(C)[C@H]3CCCCCN(C3=O)[C@@H](Cc3ccc(C(F)(F)F)cc3)C(=O)N(C)CC(=O)N[C@@H](CCc3cc(F)c(C(F)(F)F)c(F)c3)C(=O)N2C1 [PP0948] | 234 nM | – | 3.2 nM | – | – | A (a compound having 10 or more and less than 20 is denoted as A) | A (a compound having 10 or more and less than 20 is denoted as A) | – |
| CCOC[C@H]1C(=O)N[C@@H]([C@@H](C)CC)C(=O)N(C)CC(=O)N(C)[C@H]2C/C=C\CCN(C2=O)[C@@H](Cc2ccc(C)cc2)C(=O)N(C)CC(=O)N[C@@H](CCc2cc(F)c(C(F)(F)F)c(F)c2)C(=O)N2C[C@H](OCC)C[C@H]2C(=O)NC2(CC(C)(C)C2)C(=O)N(C)[C@@H](C2CCCC2)C(=O)N(C)[C@H](C(=O)N(C)CC)CC(=O)N1C [PP2404] | 4.1 nM | – | 0.09 nM | – | – | A (a compound having 10 or more and less than 20 is denoted as A) | A (a compound having 10 or more and less than 20 is denoted as A) | – |
| CCO[C@@H]1C[C@H]2C(=O)NC3(CCC3)C(=O)N(C)[C@@H](C(CC)CC)C(=O)N(C)[C@H](C(=O)N(C)C)CC(=O)N(C)[C@@H](CC(C)C)C(=O)N[C@@H]([C@@H](C)CC)C(=O)N(C)CC(=O)N(C)[C@H]3C/C=C\CCN(C3=O)[C@@H](CC3CCCCC3)C(=O)N(C)CC(=O)N[C@@H](CCc3cc(F)c(C(F)(F)F)c(F)c3)C(=O)N2C1 [PP1432] | 51.3 nM | 0.61 nM | – | A (a compound having 10 or more and less than 20 is denoted as A) | AA (a compound having 20 or more is denoted as AA) | – | – | – |
| CCO[C@@H]1C[C@H]2C(=O)NC3(CC(C)(C)C3)C(=O)N(C)[C@@H](C(CC)CC)C(=O)N(C)[C@H](C(=O)N3CCCCC3)CC(=O)N(C)[C@@H](COC)C(=O)N[C@@H]([C@@H](C)CC)C(=O)N(C)CC(=O)N(C)[C@H]3C/C=C\CCN(C3=O)[C@@H](Cc3ccc(C(F)(F)F)cc3)C(=O)N(C)CC(=O)N[C@@H](CCc3ccc(Cl)c(Cl)c3)C(=O)N2C1 [PP2610] | 126 nM | – | – | – | – | – | – | HRAS/KRAS (ratio of KD value with respect to GDP-bound HRAS wild-type protein to KD value with respect to KRAS) [2]: A (a compound having 10 or more and less than 20 is denoted as A); Kd [3, 5]: 1.3 nM; NRAS/KRAS (ratio of KD value with respect to GDP-bound NRAS wild-type protein to KD value with respect to KRAS) [4]: AA (a compound having 20 or more is denoted as AA) |

Further lines, with some results ahead:

| IC50 [1] | Kd [3, 6] | Kd [3, 7] | Compound | HRAS/KRAS (ratio of KD value for HRAS to KD value for KRAS) ([2]; SPR, KD ratio class) | NRAS/KRAS (ratio of KD value for NRAS to KD value for KRAS) ([4]; SPR, KD ratio class) | HRAS/KRAS (ratio of KD value for HRAS to KD value for KRAS) ([2]; SPR) | NRAS/KRAS (ratio of KD value for NRAS to KD value for KRAS) ([4]; SPR) | other results |
| --- | --- | --- | --- | --- | --- | --- | --- | --- |
| 22.5 nM | – | – | CC[C@H](C)[C@@H]1NC(=O)[C@H](COC)N(C)C(=O)C[C@@H](C(=O)N(C)C)N(C)C(=O)[C@H](C2CCCCC2)N(C)C(=O)C2(CC(C)(C)C2)NC(=O)[C@@H]2C[C@@H](OC3CCCC3)CN2C(=O)[C@H](CCc2cc(F)c(C(F)(F)F)c(F)c2)NC(=O)CN(C)C(=O)[C@H](Cc2ccc(C(F)(F)F)cc2)N2CC/C=C\C[C@@H](C2=O)N(C)C(=O)CN(C)C1=O [PP2656] | – | – | – | – | HRAS/KRAS (ratio of KD value with respect to GDP-bound HRAS wild-type protein to KD value with respect to KRAS) [2]: B (a compound having 3 or more and less than 10 is denoted as B); Kd [3, 5]: 0.31 nM; NRAS/KRAS (ratio of KD value with respect to GDP-bound NRAS wild-type protein to KD value with respect to KRAS) [4]: A (a compound having 10 or more and less than 20 is denoted as A) |
| 18.9 nM | 0.23 nM | – | CCO[C@@H]1C[C@H]2C(=O)NC3(CCC3)C(=O)N(C)[C@@H](C3CCCC3)C(=O)N(C)[C@H](C(=O)N(C)C)CC(=O)N(C)[C@@H](CC(C)C)C(=O)N[C@@H]([C@@H](C)CC)C(=O)N(C)CC(=O)N(C)[C@H]3C/C=C\CCN(C3=O)[C@@H](Cc3ccc(C(F)(F)F)cc3)C(=O)N(C)CC(=O)N[C@@H](CCc3cc(F)c(Cl)c(F)c3)C(=O)N2C1 [PP1263] | A (a compound having 10 or more and less than 20 is denoted as A) | A (a compound having 10 or more and less than 20 is denoted as A) | – | – | – |
| 4.1 nM | 0.03 nM | – | CCO[C@@H]1C[C@H]2C(=O)NC3(CCCC3)C(=O)N(C)[C@@H](C3CCCC3)C(=O)N(C)[C@H](C(=O)N(C)C)CC(=O)N(C)[C@@H](CC)C(=O)N[C@@H]([C@@H](C)CC)C(=O)N(C)CC(=O)N(C)[C@H]3C[C@@H](C)[C@@H](C)CN(C3=O)[C@@H](Cc3ccc(C(F)(F)F)cc3)C(=O)N(C)CC(=O)N[C@@H](CCc3ccc(C(F)(F)F)c(Cl)c3)C(=O)N2C1 [PP1358] | B (a compound having 3 or more and less than 10 is denoted as B) | A (a compound having 10 or more and less than 20 is denoted as A) | – | – | – |
| 15.9 nM | 0.37 nM | – | CCO[C@@H]1C[C@H]2C(=O)NC3(CCC3)C(=O)N(C)[C@@H](C3CCCC3)C(=O)N(C)[C@H](C(=O)N(C)C)CC(=O)N(C)[C@@H](CC3CCCC3)C(=O)N[C@@H]([C@@H](C)CC)C(=O)N(C)CC(=O)N(C)[C@H]3C/C=C\CCN(C3=O)[C@@H](Cc3ccc(C(F)(F)F)cc3)C(=O)N(C)CC(=O)N[C@@H](CCc3cc(F)c(Cl)c(F)c3)C(=O)N2C1 [PP1264] | B (a compound having 3 or more and less than 10 is denoted as B) | A (a compound having 10 or more and less than 20 is denoted as A) | – | – | – |
| 202 nM | – | 0.32 nM | CC[C@H](C)[C@@H]1NC(=O)[C@H](CC)N(C)C(=O)C[C@@H](C(=O)N(C)C)N(C)C(=O)[C@H](C2CCCC2)N(C)C(=O)C2(CCC2)NC(=O)[C@H](C)N(C)C(=O)[C@H](CCc2cc(F)c(C(F)(F)F)c(F)c2)NC(=O)CN(C)C(=O)[C@H](Cc2ccc(C(F)(F)F)cc2)N2CC/C=C\C[C@@H](C2=O)N(C)C(=O)CN(C)C1=O [PP1146] | – | – | B (a compound having 3 or more and less than 10 is denoted as B) | A (a compound having 10 or more and less than 20 is denoted as A) | – |
| – | – | 0.043 nM | CCC[C@H]1C(=O)N[C@@H]([C@@H](C)CC)C(=O)N(C)CC(=O)N(C)[C@H]2C/C=C\CCN(C2=O)[C@@H](Cc2ccc(C)cc2)C(=O)N(C)CC(=O)N[C@@H](CCc2cc(F)c(C(F)(F)F)c(F)c2)C(=O)N2C[C@H](OCC)C[C@H]2C(=O)N(C)C2(CCC2)C(=O)N(C)[C@@H](C2CCCC2)C(=O)N(C)[C@H](C(=O)N2CCCC2)CC(=O)N1C [PP3121, (2S,8S,12R,14S,20S,23S,27S,30S,36S,38Z)-20-cyclopentyl-8-[2-[3,5-difluoro-4-(trifluoromethyl)phenyl]ethyl]-12-ethoxy-4,16,19,22,26,32,35-heptamethyl-30-[(1S)-1-methylpropyl]-27-propyl-2-(p-tolylmethyl)-23-(pyrrolidine-1-carbonyl)spiro[1,4,7,10,16,19,22,26,29,32,35-undecazatricyclo[34.5.1.0^10,14]dotetracont-38-ene-17,1′-cyclobutane]-3,6,9,15,18,21,25,28,31,34,42-undecone] | – | – | A (a compound having 10 or more and less than 20 is denoted as A) | A (a compound having 10 or more and less than 20 is denoted as A) | IC50 ([1]; read-out: NCI-H441 cell proliferation inhibitory activity, 50% proliferation inhibitory concentration (IC50 value), NCI-H441, four days, CellTiter-Glo): 1.5 nM; ratio of the KD value with respect to GDP-bound HRAS wild-type protein to the KD value with respect to KRAS ([2]; SPR, KD(HRAS)/KD(KRAS)): A (a compound having 10 or more and less than 20 is denoted as A); Kd ([3]; SPR, Single Cycle Kinetics, 1:1 binding model, read-out: KD value with respect to GDP-bound KRAS wild-type protein): 0.043 nM; ratio of the KD value with respect to GDP-bound NRAS wild-type protein to the KD value with respect to KRAS ([4]; SPR, KD(NRAS)/KD(KRAS)): A (a compound having 10 or more and less than 20 is denoted as A) |
| 40.4 nM | 0.26 nM | – | CCO[C@@H]1C[C@H]2C(=O)NC3(CCC3)C(=O)N(C)[C@@H](C3CCCC3)C(=O)N(C)[C@H](C(=O)N3CCCC3)CC(=O)N(C)[C@@H](CC3CCCCC3)C(=O)N[C@@H]([C@@H](C)CC)C(=O)N(C)CC(=O)N(C)[C@H]3C/C=C\CCN(C3=O)[C@@H](Cc3ccc(C(F)(F)F)cc3)C(=O)N(C)CC(=O)N[C@@H](CCc3cc(F)c(C(F)(F)F)c(F)c3)C(=O)N2C1 [PP1419] | A (a compound having 10 or more and less than 20 is denoted as A) | AA (a compound having 20 or more is denoted as AA) | – | – | – |
